Literature values, collected in patent US9708333B2, “Fused bicyclic 1,2,4-triazine compounds as TAM inhibitors” (Incyte Corporation, priority 2015, dated 2017).

Biological target: JAK1 (Homo sapiens (Human), UniProt P23458)
Settings: selectivity ratio, IC50 at 1 mM ATP; cited from earlier work

Chain of JAK1 (P23458 whole entry, species assumed): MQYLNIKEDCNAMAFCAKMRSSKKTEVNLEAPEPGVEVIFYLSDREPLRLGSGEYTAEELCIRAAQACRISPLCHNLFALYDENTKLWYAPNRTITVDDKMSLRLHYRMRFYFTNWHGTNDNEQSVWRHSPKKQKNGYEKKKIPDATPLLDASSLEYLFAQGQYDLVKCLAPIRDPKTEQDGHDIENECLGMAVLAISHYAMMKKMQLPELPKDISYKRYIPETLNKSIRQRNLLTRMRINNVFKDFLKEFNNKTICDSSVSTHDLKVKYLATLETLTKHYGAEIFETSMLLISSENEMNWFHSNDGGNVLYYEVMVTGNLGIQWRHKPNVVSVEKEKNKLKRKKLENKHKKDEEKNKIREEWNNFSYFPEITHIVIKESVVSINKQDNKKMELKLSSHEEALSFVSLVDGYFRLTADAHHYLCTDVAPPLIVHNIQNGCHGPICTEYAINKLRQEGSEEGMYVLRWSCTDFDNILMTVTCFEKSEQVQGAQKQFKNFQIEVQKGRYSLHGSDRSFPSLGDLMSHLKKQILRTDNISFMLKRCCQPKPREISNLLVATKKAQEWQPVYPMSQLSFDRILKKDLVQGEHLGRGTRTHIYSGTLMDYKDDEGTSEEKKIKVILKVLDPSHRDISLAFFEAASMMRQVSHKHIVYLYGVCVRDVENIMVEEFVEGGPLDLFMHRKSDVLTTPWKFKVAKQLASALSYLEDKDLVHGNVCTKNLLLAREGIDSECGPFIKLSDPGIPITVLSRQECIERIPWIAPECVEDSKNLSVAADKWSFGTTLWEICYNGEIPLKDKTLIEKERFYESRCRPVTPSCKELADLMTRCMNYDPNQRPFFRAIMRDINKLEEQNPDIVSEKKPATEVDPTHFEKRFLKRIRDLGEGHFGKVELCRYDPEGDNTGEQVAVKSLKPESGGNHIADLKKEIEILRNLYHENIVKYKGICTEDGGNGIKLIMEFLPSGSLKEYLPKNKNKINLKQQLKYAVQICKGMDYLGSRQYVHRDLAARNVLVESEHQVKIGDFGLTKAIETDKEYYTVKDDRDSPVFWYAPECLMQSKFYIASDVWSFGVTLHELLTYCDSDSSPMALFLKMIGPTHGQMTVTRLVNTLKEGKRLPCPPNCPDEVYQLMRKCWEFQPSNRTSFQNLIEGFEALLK

JAK2/JAK1, >10:
C[C@@H](O)c1nc2cnc3ccsc3c2n1[C@H]1CC[C@H](CC#N)OC1 [Compound 1, ((2R,5S)-5-{2-[(1R)-1-hydroxyethyl]-1H-imidazo[4,5-d]thieno[3,2-b]pyridin-1-yl}tetrahydro-2H-pyran-2-yl)acetonitrile]
N#CCC(C1CCN(c2cccc(Cl)n2)C1)n1cc(-c2ncnc3[nH]ccc23)cn1 (stereo not shown) [Compound 3, 3-[1-(6-chloropyridin-2-yl)pyrrolidin-3-yl]-3-[4-(7H-pyrrolo[2,3-d]pyrimidin-4-yl)-1H-pyrazol-1-yl]propanenitrile]
N#CCC(C1CCN(c2nc3cccnc3o2)C1)n1cc(-c2ncnc3[nH]ccc23)cn1 (stereo not shown) [Compound 4, 3-(1-[1,3]oxazolo[5,4-b]pyridin-2-ylpyrrolidin-3-yl)-3-[4-(7H-pyrrolo[2,3-d]pyrimidin-4-yl)-1H-pyrazol-1-yl]propanenitrile]
N#CCC(CN1CCN(C(=O)c2ccc(C#N)cc2F)CC1)n1cc(-c2ncnc3[nH]ccc23)cn1 (stereo not shown) [Compound 5, 4-[(4-{3-cyano-2-[4-(7H-pyrrolo[2,3-d]pyrimidin-4-yl)-1H-pyrazol-1-yl]propyl}piperazin-1-yl)carbonyl]-3-fluorobenzonitrile]
N#CCC(CN1CCN(C(=O)c2ccc(C#N)cc2F)CC1)n1ccc(-c2ncnc3[nH]ccc23)c1 (stereo not shown) [Compound 6, 4-[(4-{3-cyano-2-[3-(7H-pyrrolo[2,3-d]pyrimidin-4-yl)-1H-pyrrol-1-yl]propyl}piperazin-1-yl)carbonyl]-3-fluorobenzonitrile]
N#CCC1(n2cc(-c3ncnc4[nH]ccc34)cn2)CN(C2CCN(C(=O)c3ccnc(C(F)(F)F)c3F)CC2)C1 [Compound 7, {1-{1-[3-Fluoro-2-(trifluoromethyl)isonicotinoyl]piperidin-4-yl}-3-[4-(7H-pyrrolo[2,3-d]pyrimidin-4-yl)-1H-pyrazol-1-yl]azetidin-3-yl}acetonitrile]
N#CCC1(n2cc(-c3ncnc4[nH]ccc34)cn2)CN(C2CCN(C(=O)Nc3ccc(F)cc3C(F)(F)F)CC2)C1 [Compound 8, 4-{3-(Cyanomethyl)-3-[4-(7H-pyrrolo[2,3-d]pyrimidin-4-yl)-1H-pyrazol-1-yl]azetidin-1-yl}-N-[4-fluoro-2-(trifluoromethyl)phenyl]piperidine-1-carboxamide]
N#CCC1(n2cc(-c3ncnc4[nH]ccc34)cn2)CN(C2CCN(C(=O)c3ccnc(C(F)(F)F)n3)CC2)C1 [Compound 9, [3-[4-(7H-pyrrolo[2,3-d]pyrimidin-4-yl)-1H-pyrazol-1-yl]-1-(1-{[2-(trifluoromethyl)pyrimidin-4-yl]carbonyl}piperidin-4-yl)azetidin-3-yl]acetonitrile]
N#CC[C@]1(n2cc(-c3ncnc4[nH]ccc34)cn2)C[C@H](N2CCN(C(=O)c3ccnc(C(F)(F)F)n3)CC2)C1 [Compound 10, [trans-1-[4-(7H-pyrrolo[2,3-d]pyrimidin-4-yl)-1H-pyrazol-1-yl]-3-(4-{[2-(trifluoromethyl)pyrimidin-4-yl]carbonyl}piperazin-1-yl)cyclobutyl] acetonitrile]
C[C@H](NC(=O)c1cc(F)c(N2CC(CC#N)(n3cc(-c4ncnc5[nH]ccc45)cn3)C2)cc1F)C(F)(F)F [Compound 16, 4-{3-(cyanomethyl)-3-[4-(7H-pyrrolo [2,3-d]pyrimidin-4-yl)-1H-pyrazol-1-yl]azetidin-1-yl}-2,5-difluoro-N-[(1S)-2,2,2-trifluoro-1-methylethyl] benzamide]
N#CCC1(n2cc(-c3ncnc4[nH]ccc34)cn2)CN([C@H]2CC[C@@H](Oc3cc(CCO)nc(C(F)(F)F)n3)CC2)C1 [Compound 18, {1-(cis-4-{[6-(2-hydroxyethyl)-2-(trifluoromethyl)pyrimidin-4-yl]oxy}cyclohexyl)-3-[4-(7H-pyrrolo [2,3-d]pyrimidin-4-yl)-1H-pyrazol-1-yl]azetidin-3-yl}acetonitrile]
CCNCc1cc(O[C@H]2CC[C@@H](N3CC(CC#N)(n4cc(-c5ncnc6[nH]ccc56)cn4)C3)CC2)nc(C(F)(F)F)c1 [Compound 19, {1-(cis-4-{[4-[(ethylamino)methyl]-6-(trifluoromethyl)pyridin-2-yl]oxy}cyclohexyl)-3-[4-(7H-pyrrolo [2,3-d]pyrimidin-4-yl)-1H-pyrazol-1-yl]azetidin-3-yl}acetonitrile]
CC(C)(O)c1cc(O[C@H]2CC[C@@H](N3CC(CC#N)(n4cc(-c5ncnc6[nH]ccc56)cn4)C3)CC2)nc(C(F)(F)F)c1 [Compound 20, {1-(cis-4-{[4-(1-hydroxy-1-methylethyl)-6-(trifluoromethyl)pyridin-2-yl]oxy}cyclohexyl)-3-[4-(7H-pyrrolo [2,3-d]pyrimidin-4-yl)-1H-pyrazol-1-yl]azetidin-3-yl}acetonitrile]
C[C@@H](CO)NCc1cc(OC2CCN([C@H]3C[C@](CC#N)(n4cc(-c5ncnc6[nH]ccc56)cn4)C3)CC2)nc(C(F)(F)F)c1 [Compound 23, {trans-3-(4-{[4-({[(1S)-2-hydroxy-1-methylethyl]amino}methyl)-6-(trifluoromethyl)pyridin-2-yl]oxy}piperidin-1-yl)-1-[4-(7H-pyrrolo[2,3-d]pyrimidin-4-yl)-1H-pyrazol-1-yl]cyclobutyl} acetonitrile]
C[C@@H](O)CNCc1cc(OC2CCN([C@H]3C[C@](CC#N)(n4cc(-c5ncnc6[nH]ccc56)cn4)C3)CC2)nc(C(F)(F)F)c1 [Compound 24, {trans-3-(4-{[4-({[(2R)-2-hydroxypropyl]amino}methyl)-6-(trifluoromethyl)pyridin-2-yl]oxy}piperidin-1-yl)-1-[4-(7H-pyrrolo[2,3-d]pyrimidin-4-yl)-1H-pyrazol-1-yl]cyclobutyl} acetonitrile]
C[C@H](O)CNCc1cc(OC2CCN([C@H]3C[C@](CC#N)(n4cc(-c5ncnc6[nH]ccc56)cn4)C3)CC2)nc(C(F)(F)F)c1 [Compound 25, {trans-3-(4-{[4-({[(2S)-2-hydroxypropyl]amino}methyl)-6-(trifluoromethyl)pyridin-2-yl]oxy}piperidin-1-yl)-1-[4-(7H-pyrrolo[2,3-d]pyrimidin-4-yl)-1H-pyrazol-1-yl]cyclobutyl} acetonitrile]
N#CC[C@]1(n2cc(-c3ncnc4[nH]ccc34)cn2)C[C@H](N2CCC(Oc3cc(CCO)cc(C(F)(F)F)n3)CC2)C1 [Compound 26, {trans-3-(4-{[4-(2-hydroxyethyl)-6-(trifluoromethyl)pyridin-2-yl]oxy}piperidin-1-yl)-1-[4-(7H-pyrrolo[2,3-d]pyrimidin-4-yl)-1H-pyrazol-1-yl]cyclobutyl} acetonitrile]
CCCCNc1ncc2c(-c3ccc(F)cc3)nc(C[C@H]3CC[C@H](N)CC3)n2n1 [Example 13, trans-7-[(4-Aminocyclohexyl)methyl]-N-butyl-5-(4-fluorophenyl)imidazo[5,1-f][1,2,4]triazin-2-amine]
N[C@H]1CC[C@H](Cc2nc(-c3ccc(F)cc3)c3cnc(NCCCc4ccccc4)nn23)CC1 [Example 14, trans-7-((4-Aminocyclohexyl)methyl)-5-(4-fluorophenyl)-N-(3-phenylpropyl)imidazo [5,1-f][1,2,4]triazin-2-amine]
